The structures appear in SMILES notation.

1 molecule from patent publication US10500169B2, “Supression of IgE production by compounds derived from traditional chinese medicine” (Sean N. Parker Foundation, priority 2014, dated 2019) can be followed below.

Holding throughout (type): cell-based, human
The test system of data set [1] is U266 cells. As to the kind of experiment: IgE production by U266 myeloma cells, ELISA of supernatants. On the procedure: The IgE producing human U266 myeloma cell line (American Type Culture Collection; Rockville, Md.) has been used for screening pharmaceutical agents for IgE inhibitory effects, and thus this cell line was used to test the potential IgE inhibitory effects of herb extracts and purified compounds. Cells were cultured at 37° C. under 5% CO2 in complete media containing RPMI 1640 medium supplemented, 10% FBS, 1 mM sodium pyruvate, 1×10^-5 M β-ME and 0.5% penicillin-streptomycin. Cells were grown at an initial concentration of 2×10^5 cells/mL. FAHF-2 and B-FAHF-2, individual herb extracts and isolated compounds at different concentrations were added at day 0. Supernatants were harvested after 6 days culture, and IgE levels were determined by using an ELISA Kit (Mabtech Inc, OH). In each experiment, we run duplicate ELISA. In vitro experiments were repeated at least 3 times.
Human U266 myeloma cells (American Type Culture Collection; Rockville, Md.) were cultured in complete medium (RPMI 1640 medium supplemented, 10% FBS, 1 mM sodium pyruvate, 1×10^−5 M β-ME and 0.5% penicillin-streptomycin) at 37° C. under 5% CO2. Cells were grown at an initial concentration of 2×10^5 cells/mL with purpurin and alizarin from Rubia cordifolia L. at different concentrations (0.31, 0.62, 1.25, 2.5, 5 μg/mL), and with arctiin and arctigenin from Arctium lappa L. at different concentrations ([…]) for 6 days. The supernatants were harvested on day 6 for total IgE analysis using ELISA.
For orientation: In an ELISA, binding on a coated surface is turned into a signal by an enzyme label.

The test system of data set [2] is U266 cells. Nature of the data set: Cell viability of U266 cells, trypan blue exclusion. To be noted: at the concentrations tested. As for the experimental part: Cell viability was evaluated using a trypan blue exclusion as previously described. Briefly, a 10 μl of cells suspension from each culture was mixed with equal volume of trypan blue dye. The mixture was loaded into a hemocytometer and cells were counted under a microscope. The percentage of viable cells was calculated as follows: Viable cells (%)=(total number of viable cells)/(total number of cells)×100.

The test system of data set [3] is phosphorylated-IκBα. As to the kind of experiment: In-Cell Western of phosphorylated IκBα in PBMCs. As to conditions: 10 μg/mL, vs non-treated stimulated cells. As for the experimental part:
PBMCs (1×10^5 cells/mL) were cultured with or without DMF-C1 (10 μg/mL) and stimulated with or without rIL-4 (100 ng/mL) and anti-CD40 (1 μg/mL) mAb for 10 days. In-Cell Western Assay (Li-Cor, Lincoln, Nebr.) was performed following the manufacturer's instructions. In brief, cells were incubated with antibodies against phosphorylated-IκBα (p-IκBα; Cell Signaling) and β-actin (Santa Cruz Biotechnology) overnight. After washing with 0.1% Tween PBS buffer, secondary antibodies IRDye800CW donkey anti-goat and IRDye680 donkey anti-rabbit (LI-Cor) were added and incubated at room temperature for 1 hour in the dark. Plates were scanned and analyzed with Odyssey CLx Infrared Imaging System.

In data set [4] the test system is IFN-γ. As to the kind of experiment: RT-PCR gene expression in stimulated PBMCs: IFN-γ. As to conditions: 10 μg/mL. On the procedure: (§1) Quantitative real time PCR was used to detect the epsilon germline transcription. Human PBMC cells (1.5×10^6 cells/mL) were co-incubated with DMF-C1 compound (10 μg/mL) at 37° C. under 5% CO2 for 4 days. Cells were then harvested and total RNA was isolated using Trizol reagent (Gibco BRL, Rockville, Md.) following the manufacturer's instructions. The RNA concentrations were then quantified by triplicate optical density (OD) readings (Bio-Rad SmartSpect 3000; Bio-Rad, Hercules, Calif.). The reverse transcription was performed to get the cDNA using ImProm-II™ Reverse Transcriptase (Promega Corporation, Madison, Wis.) as described by the manufacturer's instructions. The RT-PCR amplification was performed using Maxima™ SYBR Green qPCR Master Mix (2×) kit (Fisher Scientific, Pittsburgh, Pa.) with epsilon germline primers or GAPDH primers. The primer sequences were listed as εGLT forward: 5′-[…]-3′; εGLT reverse: 5′-[…]-3′; GAPDH-forward: 5′-[…]-3′; GAPDH-reverse: 5′-[…]-3′; STAT3-forward: 5′-[…]-3′; STAT3-reverse: 5′-[…]-3′; T-bet-forward: 5′-[…]-3′; T-bet-reverse: 5′-[…]-3′; IFN-γ-forward: 5′-[…]-3′; IFN-γ-reverse: 5′-[…]-3′; IL-10-forward: 5′-[…]-3′; IL-10-reverse: 5′-[…]-3′. IL-5-forward. 5′-[…] TGCA-3′; IL-5-reverse: 5′-[…]-3′. All primers were synthesized by Sigma-Aldrich Corporation (St. Louis, Mo.).

Data set [5] deals with Foxp3. Nature of the data set: RT-PCR gene expression in stimulated PBMCs: Foxp3. To be noted: 10 μg/mL. As for the experimental part: as §1
Data set [6] concerns IL-10. As to the kind of experiment: RT-PCR gene expression in stimulated PBMCs: IL-10. As to conditions: 10 μg/mL. On the procedure:
as §1

Data set [7] relates to IL-5. As to the kind of experiment: RT-PCR gene expression in stimulated PBMCs: IL-5. To be noted: 10 μg/mL. On the procedure:
as §1

One may read the inhibition as the relative decrease from the control value, in per cent. Read a low inhibition as a weak effect. In general, IC50 refers to the point on the concentration scale where inhibition reaches its midpoint. For `COc1ccc2cc3[n+](cc2c1OC)CCc1cc2c(cc1-3)OCO2` [berberine], the inhibition at 20 µg/mL in data set [1] (Homo sapiens, U-266, 144 h, 20 μg/mL, 6 days) amounted to 94.6%. Further, in data set [1] (Homo sapiens, U-266, 144 h, 6 days culture, read-out: IC50 of inhibition of IgE production by U266 cells), the IC50 is 3.95 µg/mL. Also, in data set [1] (different concentrations, 6 days), the “effect on IgE production by U266 cells (in words)” value is reported as “inhibited IgE production in a dose-dependent manner”. The “cell viability of U266 cells” value in data set [2] is listed as “no toxicity”. Besides, the “phosphorylated IκBα levels” value in data set [3] is “significantly suppressed”. The “mRNA level of IFN-γ” value in data set [4] is recorded as “trend of increase”. The “mRNA level of Foxp3” value in data set [5] is listed as “trend of increase”. Also, in data set [6], the “mRNA level of IL-10” value is recorded as “trend of increase”. Besides, the “mRNA level of IL-5” value in data set [7] is reported as “significantly decreased”.
